Reference: patent publication US12281149B2, “Modulators of G-protein coupled receptors” (priority 2021, dated 2025)
One block for each compound: values may come before it. *1 amine or outer side, *2 acyl side, *3 side chain or, on linkers, in order; H or OH if unused. Where a SMILES comes first, the peptide text is derived from it. Side-chain parts run from the residue outwards. [ ]: non-standard residue; d: D form. The star is where a group is joined. Isobutyryl(2-(3-CN-5-F-Ph)) = CC(C)(C(=O)*)c1cc(F)cc(C#N)c1; C20 diacid = O=C(O)CCCCCCCCCCCCCCCCCCC(=O)*; αMePhe(2-F) = C[C@](N)(Cc1ccccc1F)C(=O)O; γGlu = O=C(O)[C@H](CCC(=O)[*:2])N[*:1]; 2Thenoyl(5-Cl) = O=C(c1ccc(Cl)s1)*; X40 = CC(C)(C(=O)*)n1cc(Cl)cn1; X60 = O=C(C1(c2cccnc2)CCCC1)*; Ac4c = NC1(C(=O)O)CCC1; AEEA = NCCOCCOCC(=O)O; Aib = CC(C)(N)C(=O)O; GABA = NCCCC(=O)O; βAla = NCCC(=O)O

How the values were obtained:
[1] = molecular target: GLP-1 receptor (Homo sapiens, UniProt P43220); assay: HitHunter cAMP assay, GLP-1 receptor; assay type: cell-based; details: CHO cells, cAMP; normalized to maximum signal from GLP-1 (high) and DMSO (low); read-out: Emax GLP-1R
Chain of GLP-1 receptor (P43220 24-463): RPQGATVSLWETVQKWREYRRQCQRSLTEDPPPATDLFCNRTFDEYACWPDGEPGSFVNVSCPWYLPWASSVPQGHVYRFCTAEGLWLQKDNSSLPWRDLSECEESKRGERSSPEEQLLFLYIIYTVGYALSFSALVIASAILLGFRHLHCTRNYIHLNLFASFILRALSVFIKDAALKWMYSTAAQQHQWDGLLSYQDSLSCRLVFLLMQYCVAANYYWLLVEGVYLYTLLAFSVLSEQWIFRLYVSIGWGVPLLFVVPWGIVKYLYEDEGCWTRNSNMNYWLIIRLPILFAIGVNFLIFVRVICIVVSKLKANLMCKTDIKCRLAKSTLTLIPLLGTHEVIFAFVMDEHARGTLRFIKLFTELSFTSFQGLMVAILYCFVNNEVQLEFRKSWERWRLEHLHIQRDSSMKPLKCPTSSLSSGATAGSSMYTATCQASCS

[2] = molecular target: T1, GIP receptor (Homo sapiens, UniProt P48546); assay: HitHunter cAMP assay, GIP receptor; assay type: cell-based; details: CHO cells, cAMP; normalized to maximum signal from GIP (high) and DMSO (low); read-out: Emax GIP-1R
T1 sequence (P48546 22-466): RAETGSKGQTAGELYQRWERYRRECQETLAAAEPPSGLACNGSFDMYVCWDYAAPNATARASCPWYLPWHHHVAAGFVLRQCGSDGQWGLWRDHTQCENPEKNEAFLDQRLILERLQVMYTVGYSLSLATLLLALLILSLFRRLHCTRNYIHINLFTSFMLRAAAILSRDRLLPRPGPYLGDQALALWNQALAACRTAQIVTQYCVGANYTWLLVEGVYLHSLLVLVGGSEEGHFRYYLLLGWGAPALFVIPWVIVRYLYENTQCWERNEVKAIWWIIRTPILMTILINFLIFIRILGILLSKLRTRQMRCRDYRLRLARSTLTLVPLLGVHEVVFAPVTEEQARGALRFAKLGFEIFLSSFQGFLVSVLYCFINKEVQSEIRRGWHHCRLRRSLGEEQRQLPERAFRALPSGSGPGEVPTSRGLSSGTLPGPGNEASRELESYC

Emax [1]: 104%
Emax [2]: 102%
Compound: CC[C@H](C)[C@H](NC(=O)[C@H](CC(C)C)NC(=O)[C@H](Cc1c[nH]c2ccccc12)NC(=O)[C@H](CCC(N)=O)NC(=O)[C@@H](NC(=O)[C@H](Cc1ccccc1)NC(=O)[C@H](C)NC(=O)[C@H](CCCCNC(=O)COCCOCCNC(=O)COCCOCCNC(=O)CC[C@H](NC(=O)CCCCCCCCCCCCCCCCCCC(=O)O)C(=O)O)NC(=O)[C@H](CCC(N)=O)NC(=O)[C@H](C)NC(=O)[C@@H](NC(=O)[C@H](CCCCN)NC(=O)[C@H](CC(=O)O)NC(=O)[C@H](CC(C)C)NC(=O)C(C)(C)NC(=O)[C@@H](NC(=O)[C@H](CO)NC(=O)[C@H](Cc1ccc(O)cc1)NC(=O)[C@H](CC(=O)O)NC(=O)[C@H](CO)NC(=O)[C@@H](NC(=O)[C@](C)(Cc1ccccc1F)NC(=O)[C@@H](NC(=O)CNC(=O)[C@H](CCC(=O)O)NC(=O)CCNC(=O)C1(c2cccnc2)CCCC1)[C@@H](C)O)[C@@H](C)O)[C@@H](C)CC)[C@@H](C)CC)C(C)C)C(=O)N[C@@H](C)C(=O)NCC(N)=O [Compound 226] ({X60-βAla}-EGT[αMePhe(2-F)]TSDYSI[Aib]LDKIAQK([AEEA-AEEA-γGlu-C20 diacid])AFVQWLIAG-NH2; N-terminus and C-terminus assumed)

Emax [1]: 102%
Emax [2]: 112%
Compound: CC[C@H](C)[C@H](NC(=O)[C@H](CC(C)C)NC(=O)[C@H](Cc1c[nH]c2ccccc12)NC(=O)[C@H](CCC(N)=O)NC(=O)[C@@H](NC(=O)[C@H](Cc1ccccc1)NC(=O)[C@H](C)NC(=O)[C@H](CCCCNC(=O)COCCOCCNC(=O)COCCOCCNC(=O)CC[C@H](NC(=O)CCCCCCCCCCCCCCCCCCC(=O)O)C(=O)O)NC(=O)[C@H](CCC(N)=O)NC(=O)[C@H](C)NC(=O)[C@@H](NC(=O)[C@H](CCCCN)NC(=O)[C@H](CC(=O)O)NC(=O)[C@H](CC(C)C)NC(=O)C(C)(C)NC(=O)[C@@H](NC(=O)[C@H](CO)NC(=O)[C@H](Cc1ccc(O)cc1)NC(=O)[C@H](CC(=O)O)NC(=O)[C@H](CO)NC(=O)[C@@H](NC(=O)[C@H](Cc1ccccc1)NC(=O)[C@@H](NC(=O)CNC(=O)[C@H](CCC(=O)O)NC(=O)CCNC(=O)C1(c2cccnc2)CCCC1)[C@@H](C)O)[C@@H](C)O)[C@@H](C)CC)[C@@H](C)CC)C(C)C)C(=O)N[C@@H](C)C(=O)NCC(N)=O [Compound 227] ({X60-βAla}-EGTFTSDYSI[Aib]LDKIAQK([AEEA-AEEA-γGlu-C20 diacid])AFVQWLIAG-NH2; N-terminus and C-terminus assumed)

Emax [1]: 100%
Emax [2]: 105%
Compound: CC[C@H](C)[C@H](NC(=O)[C@H](CC(C)C)NC(=O)[C@H](Cc1c[nH]c2ccccc12)NC(=O)[C@H](CCC(N)=O)NC(=O)[C@@H](NC(=O)[C@H](Cc1ccccc1)NC(=O)[C@H](C)NC(=O)[C@H](CCCCNC(=O)COCCOCCNC(=O)COCCOCCNC(=O)CC[C@H](NC(=O)CCCCCCCCCCCCCCCCCCC(=O)O)C(=O)O)NC(=O)[C@H](CCC(N)=O)NC(=O)[C@H](C)NC(=O)[C@@H](NC(=O)[C@H](CCCCN)NC(=O)[C@H](CC(=O)O)NC(=O)[C@H](CC(C)C)NC(=O)C(C)(C)NC(=O)[C@@H](NC(=O)[C@H](CO)NC(=O)[C@H](Cc1ccc(O)cc1)NC(=O)[C@H](CC(=O)O)NC(=O)[C@H](CO)NC(=O)[C@@H](NC(=O)[C@](C)(Cc1ccccc1F)NC(=O)[C@@H](NC(=O)CNC(=O)[C@H](CCC(=O)O)NC(=O)CCNC(=O)C(C)(C)c1cc(F)cc(C#N)c1)[C@@H](C)O)[C@@H](C)O)[C@@H](C)CC)[C@@H](C)CC)C(C)C)C(=O)N[C@@H](C)C(=O)NCC(N)=O [Compound 228] ({Isobutyryl(2-(3-CN-5-F-Ph))-βAla}-EGT[αMePhe(2-F)]TSDYSI[Aib]LDKIAQK([AEEA-AEEA-γGlu-C20 diacid])AFVQWLIAG-NH2; N-terminus and C-terminus assumed)

Emax [1]: 102%
Emax [2]: 107%
Compound: CC[C@H](C)[C@H](NC(=O)[C@H](CC(C)C)NC(=O)[C@H](Cc1c[nH]c2ccccc12)NC(=O)[C@H](CCC(N)=O)NC(=O)[C@@H](NC(=O)[C@H](Cc1ccccc1)NC(=O)[C@H](C)NC(=O)[C@H](CCCCNC(=O)COCCOCCNC(=O)COCCOCCNC(=O)CC[C@H](NC(=O)CCCCCCCCCCCCCCCCCCC(=O)O)C(=O)O)NC(=O)[C@H](CCC(N)=O)NC(=O)[C@H](C)NC(=O)[C@@H](NC(=O)[C@H](CCCCN)NC(=O)[C@H](CC(=O)O)NC(=O)[C@H](CC(C)C)NC(=O)C(C)(C)NC(=O)[C@@H](NC(=O)[C@H](CO)NC(=O)[C@H](Cc1ccc(O)cc1)NC(=O)[C@H](CC(=O)O)NC(=O)[C@H](CO)NC(=O)[C@@H](NC(=O)[C@H](Cc1ccccc1)NC(=O)[C@@H](NC(=O)CNC(=O)[C@H](CCC(=O)O)NC(=O)CCNC(=O)C(C)(C)c1cc(F)cc(C#N)c1)[C@@H](C)O)[C@@H](C)O)[C@@H](C)CC)[C@@H](C)CC)C(C)C)C(=O)N[C@@H](C)C(=O)NCC(N)=O [Compound 229] ({Isobutyryl(2-(3-CN-5-F-Ph))-βAla}-EGTFTSDYSI[Aib]LDKIAQK([AEEA-AEEA-γGlu-C20 diacid])AFVQWLIAG-NH2; N-terminus and C-terminus assumed)

Further lines, the compound ahead of its results:

Compound: CC[C@H](C)[C@H](NC(=O)[C@H](CC(C)C)NC(=O)[C@H](Cc1c[nH]c2ccccc12)NC(=O)[C@H](CCC(N)=O)NC(=O)[C@@H](NC(=O)[C@H](Cc1ccccc1)NC(=O)[C@H](C)NC(=O)[C@H](CCCCNC(=O)COCCOCCNC(=O)COCCOCCNC(=O)CC[C@H](NC(=O)CCCCCCCCCCCCCCCCCCC(=O)O)C(=O)O)NC(=O)[C@H](CCC(N)=O)NC(=O)[C@H](C)NC(=O)[C@@H](NC(=O)[C@H](CCCNC(=N)N)NC(=O)[C@H](CC(=O)O)NC(=O)[C@H](CC(C)C)NC(=O)C(C)(C)NC(=O)[C@@H](NC(=O)[C@H](CO)NC(=O)[C@H](Cc1ccc(O)cc1)NC(=O)[C@H](CC(=O)O)NC(=O)[C@H](CO)NC(=O)[C@@H](NC(=O)[C@H](Cc1ccccc1)NC(=O)[C@@H](NC(=O)CNC(=O)[C@H](CCC(=O)O)NC(=O)CCNC(=O)C1(c2cccnc2)CCCC1)[C@@H](C)O)[C@@H](C)O)[C@@H](C)CC)[C@@H](C)CC)C(C)C)C(=O)N[C@@H](C)C(=O)NCC(=O)NCC(=O)N1CCC[C@H]1C(=O)N[C@@H](CO)C(=O)N[C@@H](CO)C(=O)NCC(=O)N[C@@H](C)C(=O)N1CCC[C@H]1C(=O)N1CCC[C@H]1C(=O)N1CCC[C@H]1C(=O)N[C@@H](CO)C(N)=O [Compound 243] ({X60-βAla}-EGTFTSDYSI[Aib]LDRIAQK([AEEA-AEEA-γGlu-C20 diacid])AFVQWLIAGGPSSGAPPPS-NH2; C-terminus assumed)
Emax [1]: 109%
Emax [2]: 110%

Compound: CC[C@H](C)[C@H](NC(=O)[C@H](CC(C)C)NC(=O)[C@H](Cc1c[nH]c2ccccc12)NC(=O)[C@H](CCC(N)=O)NC(=O)[C@@H](NC(=O)[C@H](Cc1ccccc1)NC(=O)[C@H](C)NC(=O)[C@H](CCCCNC(=O)COCCOCCNC(=O)COCCOCCNC(=O)CC[C@H](NC(=O)CCCCCCCCCCCCCCCCCCC(=O)O)C(=O)O)NC(=O)[C@H](CCC(N)=O)NC(=O)[C@H](C)NC(=O)[C@@H](NC(=O)[C@H](CCCCN)NC(=O)[C@H](CC(=O)O)NC(=O)[C@H](CC(C)C)NC(=O)C(C)(C)NC(=O)[C@@H](NC(=O)[C@H](CO)NC(=O)[C@H](Cc1ccc(O)cc1)NC(=O)[C@H](CC(=O)O)NC(=O)[C@H](CO)NC(=O)[C@@H](NC(=O)[C@H](Cc1ccccc1)NC(=O)[C@@H](NC(=O)CNC(=O)[C@H](CCC(=O)O)NC(=O)CCCNC(=O)C1(NC(=O)c2ccc(Cl)s2)CCC1)[C@@H](C)O)[C@@H](C)O)[C@@H](C)CC)[C@@H](C)CC)C(C)C)C(=O)N[C@@H](C)C(=O)NCC(=O)NCC(=O)N1CCC[C@H]1C(=O)N[C@@H](CO)C(=O)N[C@@H](CO)C(=O)NCC(=O)N[C@@H](C)C(=O)N1CCC[C@H]1C(=O)N1CCC[C@H]1C(=O)N1CCC[C@H]1C(=O)N[C@@H](CO)C(N)=O [Compound 244] ({2Thenoyl(5-Cl)}-[Ac4c][GABA]EGTFTSDYSI[Aib]LDKIAQK([AEEA-AEEA-γGlu-C20 diacid])AFVQWLIAGGPSSGAPPPS-NH2; C-terminus assumed)
Emax [1]: 109%
Emax [2]: 120%

Compound: CC[C@H](C)[C@H](NC(=O)[C@H](CC(C)C)NC(=O)[C@H](Cc1c[nH]c2ccccc12)NC(=O)[C@H](CCC(N)=O)NC(=O)[C@@H](NC(=O)[C@H](Cc1ccccc1)NC(=O)[C@H](C)NC(=O)[C@H](CCCCNC(=O)COCCOCCNC(=O)COCCOCCNC(=O)CC[C@H](NC(=O)CCCCCCCCCCCCCCCCCCC(=O)O)C(=O)O)NC(=O)[C@H](CCC(N)=O)NC(=O)[C@H](C)NC(=O)[C@@H](NC(=O)[C@H](CCCCN)NC(=O)[C@H](CC(=O)O)NC(=O)[C@H](CC(C)C)NC(=O)C(C)(C)NC(=O)[C@@H](NC(=O)[C@H](CO)NC(=O)[C@H](Cc1ccc(O)cc1)NC(=O)[C@H](CC(=O)O)NC(=O)[C@H](CO)NC(=O)[C@@H](NC(=O)[C@H](Cc1ccccc1)NC(=O)[C@@H](NC(=O)CNC(=O)[C@H](CCC(=O)O)NC(=O)CCNC(=O)C(C)(C)n1cc(Cl)cn1)[C@@H](C)O)[C@@H](C)O)[C@@H](C)CC)[C@@H](C)CC)C(C)C)C(=O)N[C@@H](C)C(=O)NCC(=O)NCC(=O)N1CCC[C@H]1C(=O)N[C@@H](CO)C(=O)N[C@@H](CO)C(=O)NCC(=O)N[C@@H](C)C(=O)N1CCC[C@H]1C(=O)N1CCC[C@H]1C(=O)N1CCC[C@H]1C(=O)N[C@@H](CO)C(N)=O [Compound 247] ({X40-βAla}-EGTFTSDYSI[Aib]LDKIAQK([AEEA-AEEA-γGlu-C20 diacid])AFVQWLIAGGPSSGAPPPS-NH2; C-terminus assumed)
Emax [1]: 101%
Emax [2]: 105%
